Here are results for 20 compounds from PubChem BioAssay (NCI).

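Growth conditions: 96-well plates. Treatment: test compound, 48 hours, 5 concentrations. Analysis: linear interpolation between bracketing concentrations; unreached endpoints set to highest concentration. The concentration for full growth arrest is given as TGI.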 Where only a bound is given, the exact number is not on record here.

Some test systems named below: DLD-1 colon; DMS 273 small cell lung; KM20L2 colon; LXFL 529 NSCLC; M19-MEL melanoma; RXF-631 renal; P388 leukemia; SN12K1 renal.
Experiment in all cases: NCI tumour cell line growth inhibition, 48 h

Take `Nc1ncnc2c1ncn2CCCC(c1ccccc1)P(=O)(O)O` (stereo not given): the TGI with DLD-1 colon, with DMS 273 small cell lung, in the assay on KM20L2 colon, with LXFL 529 NSCLC and with M19-MEL melanoma was over 100 µM in each case.
For `N=c1n(CC(=O)NC23CC4CC(CC(C4)C2)C3)c2ccccc2n1CC(=O)NC12CC3CC(CC(C3)C1)C2`, the TGI with DLD-1 colon turned out to be 3.5 µM; with DMS 273 small cell lung it was 3.35 µM; in the assay on KM20L2 colon, 3.2 µM; with LXFL 529 NSCLC, 3.46 µM; in the assay on M19-MEL melanoma it was 3.09 µM.
With `Cc1c(-c2coc(-c3ccccc3)n2)c(=O)n(-c2ccccc2)n1C`, the TGI in the assay on DLD-1 colon, with DMS 273 small cell lung, in the assay on KM20L2 colon, in the assay with LXFL 529 NSCLC and in the assay with M19-MEL melanoma was over 100 µM throughout.
Consider `CO[C@H]1CC[C@]2(C)C3=CC[C@@]4(C)C(CC[C@@H]4C(C)CC[C@@H](C)C(C)C)C(=CCC2C1)O3` (stereo not given in full), for which the TGI in the assay on DLD-1 colon, in the assay with DMS 273 small cell lung, with KM20L2 colon, with LXFL 529 NSCLC and in the assay with M19-MEL melanoma was over 25 µM throughout.
Regarding `Brc1c2nc3ccccc3nc2n2ccc3ccccc3c12`, the TGI in the assay with DLD-1 colon, in the assay on DMS 273 small cell lung, with KM20L2 colon, in the assay on LXFL 529 NSCLC and in the assay on M19-MEL melanoma was over 100 µM in each case.
Take `Cc1cc(Br)cc(C)c1NC(=O)C(=O)C(C(=O)c1ccncc1)C1OC(=O)c2ccccc21` (stereo not given): the TGI with DLD-1 colon, in the assay with DMS 273 small cell lung, in the assay on KM20L2 colon, with LXFL 529 NSCLC and in the assay with RXF-631 renal was over 100 µM throughout.
Regarding `N#CNC(=NCc1ccccc1)NCCc1c[nH]c2ccccc12`, the TGI in the assay on DLD-1 colon, in the assay on DMS 273 small cell lung, in the assay on KM20L2 colon, in the assay on LXFL 529 NSCLC and in the assay with M19-MEL melanoma was over 100 µM each time.
For `COc1cc(N)c2[nH]c3c(C)ccc(C)c3c2c1`, the TGI with DLD-1 colon, in the assay on DMS 273 small cell lung and with M19-MEL melanoma was over 100 µM each time.
For the compound `COc1cc2c(c(O)c1C)C(=O)CC(c1ccccc1)O2` (stereo not given), the TGI with DLD-1 colon was over 100 µM; in the assay with KM20L2 colon, 82.3 µM; with LXFL 529 NSCLC, over 100 µM; in the assay with M19-MEL melanoma it was over 100 µM; in the assay with RXF-631 renal it was over 100 µM.
With `COC1=CC(=O)C2C(C1=O)[C@@H]1c3ccccc3OC(C)(C)[C@H]21` (stereo not given in full), the TGI in the assay on DLD-1 colon turned out to be 34 µM; with DMS 273 small cell lung it was 40.6 µM; in the assay with KM20L2 colon, 66.3 µM; in the assay with LXFL 529 NSCLC, 32.8 µM; in the assay with M19-MEL melanoma it was 34.5 µM.
For the compound `CC1(C)OC2CC3COC(=O)C3CC2O1` (stereo not given), the TGI with DLD-1 colon, in the assay on DMS 273 small cell lung, with KM20L2 colon, in the assay on LXFL 529 NSCLC, with M19-MEL melanoma and with RXF-631 renal was over 100 µM throughout.
For `CCCCCCCCCCCCCCCCNCC(O)CN` (stereo not given), the TGI is 3.66 µM in the assay with DLD-1 colon; 14.3 µM in the assay with DMS 273 small cell lung; 7.19 µM with KM20L2 colon; 5.79 µM with M19-MEL melanoma; 2.68 µM with P388 leukemia; 3.44 µM in the assay with SN12K1 renal.
As to `Nc1ncnc2c1sc(=S)n2-c1ccccc1`, the TGI in the assay on DLD-1 colon, in the assay on DMS 273 small cell lung, in the assay with KM20L2 colon, in the assay with LXFL 529 NSCLC and in the assay with M19-MEL melanoma was over 100 µM in each case.
Consider `C[N+](C)=c1ccc2nc3c(ccc4ccccc43)oc-2c1`, for which the TGI in the assay on DLD-1 colon amounted to 21.1 µM; with DMS 273 small cell lung, 39.2 µM; with KM20L2 colon it was 27.1 µM; with LXFL 529 NSCLC, 19.4 µM; in the assay on M19-MEL melanoma, 12.5 µM; in the assay on RXF-631 renal, 20.8 µM.
On to `NC(=O)COc1c(Br)cc(Br)cc1Br`, for which the TGI in the assay with DLD-1 colon, in the assay on DMS 273 small cell lung, in the assay with KM20L2 colon, in the assay on M19-MEL melanoma and with RXF-631 renal was over 100 µM each time.
In the case of `COc1ccc(C2S/C(=C\c3cccc(OC)c3)C(=O)N2NC(=O)Cc2ccccc2)cc1` (stereo not given), the TGI with DLD-1 colon, with DMS 273 small cell lung, in the assay with LXFL 529 NSCLC and with M19-MEL melanoma was over 100 µM in each case.
On to `C/C=C/c1cc2c(c(=O)o1)C(=O)[C@@H](O)[C@H](C)O2`, for which the TGI with DLD-1 colon amounted to 20 µM; in the assay on DMS 273 small cell lung, 29.7 µM; in the assay on KM20L2 colon it was 30.5 µM; in the assay on M19-MEL melanoma, 27.2 µM; in the assay on P388 leukemia, 7.15 µM; in the assay with SN12K1 renal it was 31.8 µM.
Consider `O=C(NC12CC3CC(CC(C3)C1)C2)C(=O)c1c[nH]c2ccc(Br)cc12`, for which the TGI in the assay on DLD-1 colon was 89 µM; in the assay with DMS 273 small cell lung it was 17.6 µM; with KM20L2 colon it was over 100 µM; in the assay on LXFL 529 NSCLC, 37.3 µM.
With `O=S(=O)(c1ccccc1)c1nccs1`, the TGI in the assay on DLD-1 colon, with DMS 273 small cell lung, with KM20L2 colon, in the assay on LXFL 529 NSCLC and in the assay with M19-MEL melanoma was over 100 µM each time.
`CCOP(=O)(OCC)/C(C#N)=C\c1ccsc1`: the TGI with DLD-1 colon, in the assay with DMS 273 small cell lung, with KM20L2 colon, with LXFL 529 NSCLC and with M19-MEL melanoma was over 100 µM throughout.
